Several values for one entry are separate records, joined by “and”; a condition that tells them apart may be missing. Identical values can stand only once. Entries after “also recorded” stand apart in the source; their conditions may differ.
What was measured:
[1] = test system: general motor activity of mice; assay: General locomotor activity of mice (Stoelting electronic activity monitor); format: in vivo, Balb/c mice; conditions: for In Vivo Inhibition of General Motor Activity: graded 0-5; for activity in the general motor activity test (in words): i.p., mice; for effect on motor activity at low doses: 10 mg/kg (19 µmol/kg) or below, 10 mg/kg
Protocol: The effect of intraperitoneal (i.p.) injections of test compounds on the general motor activity of mice during a 60-min period was determined in a Stoelting electronic activity monitor. Dose-response curves were obtained from which the half-maximally effective values were calculated and the results are shown in Table V.
The compounds were dissolved in 25% (vols.) propylene glycol in water and injected i.p. into Balb/c mice (18-24 g). Dose-response measurements were obtained for 6 animals per dose or time point. Activity was monitored for 60 min using a Stoelting Electronic Activity Monitor (EAM) apparatus to assess the general motor activity of the animals.
The general locomotor activity of mice was measured in the Stolting activity monitor apparatus during 60 min after an intraperitoneal (i.p.) injection of a test compound.

[2] = n-Octanol/water partition coefficient; format: physicochemical; conditions: 5 ml n-octanol / 5 ml water, stirring 18 hours; read-out: KOW: Octanol/Water Partition Coefficient (converted)
Protocol: A Partition Coefficient was defined by the equation: [formula] representing the amount of the ester taken up per ml of n-octanol relative to the amount of the same compound taken up per ml of water.
The n-octanol/water partition coefficients were obtained from measurements of the distribution of 1, 3, 5 and 6 pmol quantities of each ^14C-labeled compound into a mixture of 5 ml of n-octanol and 5 ml water. At each concentration, the amount of labeled compound in the aqueous and n-octanol phases was calculated from the amount of radioactive material present after stirring for 18 hours.

[3] = mouse, in vivo
[4] = test system: bicuculline-induced epileptic seizures; assay: Delay of onset of bicuculline-induced seizures (anticonvulsant activity); format: in vivo, mouse; conditions: for anticonvulsant properties: administered at doses of 30 mg/kg; for In Vivo Delay of Time of Onset of Bicuculline-induced seizures: graded 0-5; for Onset of seizures: % Saline Control / Survival Time: % Saline Control: 24 hr pretreatment, bicuculline 0.3 mg/kg
Protocol: In a second behavioral test, the ability of a substance to prevent or delay the onset of biculline-induced epileptic seizures was measured. […] At 24 hr after i.p. injection of the cholesteryl derivative at a dose of 30 mg/kg (64 pmol/kg), the onset of seizures was delayed by 30% after an acute i.p. injection of bicuculline at 0.3 mg/kg. […] The dexamethasone and butyl esters had no effect.
The compounds were also injected i.p. at 1, 6 and 24 hr before the administration of bicuculline (0.3 mg/kg) s.c. The latency to the onset of generalized tonic-clonic epileptic seizures and the protection against the lethality of bicuculline were measured and evaluated as a percent of the data for vehicle-injected controls. No significant changes were obtained at the 1 hr and 6 hr time points. At the 24 hr time, however, some compounds delayed while others accelerated the onset of seizures.
The effect of the compound to delay the onset of a bicuculline-induced seizures was evaluated.
The ability of a substance to delay the onset of bicuculline-induced epileptic seizures in the mouse was measured (Table X). […] At 24 hr after i.p. injection of the cholesteryl derivative (6) at a dose of 30 mg/kg (64 pmol/kg), the onset of seizures was delayed by 30% (as compared to saline controls) after an acute i.p. injection of bicuculline at 0.3 mg/kg. […] The dexamethasone and butyl esters had no effect on seizures in mice.

[5] = Comparative brain/liver uptake of 14C-labeled compounds (Brain Penetration Index); conditions: for increase of 5-min BPI over GABA: 5 min after s.c. injection, relative to GABA
Protocol: The criterion used herein for measuring the extent to which a compound, from which the radical A is derived, crosses the blood-brain barrier is based on the uptake of this compound by the brain relative to its uptake by the liver. […] Measurements of the quantity of a compound present in brain and liver at 5 minutes after a subcutaneous (s.c.) injection were used to calculate a Brain Penetration Index (BPI), with the equation: [formula]
This is the amount of the compound present per gram of brain tissue as a percent of the amount per gram of liver tissue.
This procedure has the advantage that even for a sparingly soluble lipid ester, which tends to remain largely at the site of the injection and slowly diffuse into the circulation, its level in the liver will reflect the amount available rather than the initial dose injected.
The uptake of a ^14C-labeled compound into brain was compared with the uptake into liver of the same animal.
All determinations were carried out at 5 min after injection. The volumes of the injected doses into mice (body weight, 18-24 g) for the i.v., i.p., and s.c. doses were 0.15, 0.3 and 0.5 ml, respectively. […] Each tissue was homogenized in 8 ml of pyridine in a glass homogenizer.
Each labeled test compound was injected as a solution in 0.5 ml of saline (Compound 7) or in 25% propylene glycol in water (Compounds 1, 5, 6) subcutaneously (s.c.) into young adult Balb/c mice (18-24 g body weight). After 5 min (or longer) animals were sacrificed and the brain and liver removed, weighed and homogenized respectively in 8 ml and 10 ml of brain protein solvent (1 % (w/v) sodium dodecyl sulfate in 6 M urea and 19 mM EDTA, pH 7.4, 0.03 M phosphate). Aliquots (0.5 ml) of the homogenates were mixed with 10 ml of Aquasol 2 (New England Nuclear) and counted in a Beckman liquid scintillation counter. The total uptake of each compound per g brain and liver tissue was calculated. The proportion of uptake into brain as compared to liver (100%) of the same animal was designated as the Brain Penetration Index (BPI), expressed as a percentage typically at 5 min after injection.
Each of the ^14C-labeled Compounds 26, 28 and 30 were in 125 µl of the propylene glycol diluted with water up to 0.5 ml, and then injected subcutaneously into test Balb/c mice (20 ± 2 g weight). After 5 min the animals were sacrificed and the brain and liver were removed, weighed and homogenized in 8 ml and 10 ml of brain protein solvent, respectively. Next 0.5 ml aliquots were mixed with 10 ml of Aquasol 2 (New England Nuclear Corp., Boston, MA) and counted in a Beckman liquid scintillation counter. The data for the label in each tissue were used to calculate the total quantity of the compound present in brain and liver per gram of tissue. The ratio of the amount in brain as a percent of that present in liver at 5 min was taken as the Brain Penetration Index (BPI). Measurements at longer uptake times were also obtained to evaluate the accumulation of the compounds in the brain.

[6] = test system: general motor activity of mice; assay: General locomotor activity of mice (Stoelting electronic activity monitor); format: in vivo, Balb/c mice; conditions: Mus musculus, ip, 1 h; i.p.; 60-min general motor activity vs vehicle-injected and uninjected controls; 8 animals per dose
[7] = target: GABA "receptors"; assay: Inhibition of [3H]GABA binding to synaptic membranes from rat cerebellum; conditions: [3H]GABA (15 nM); synaptic membrane preparations from rat cerebellum
Protocol: IC50 values were determined by fitting data to linearized transformations, based on including at least two concentrations of antagonists above and below the IC50, with at least triplicate replication per concentration.

[8] = in vivo; conditions: mouse, sc
[9] = test system: stereotypic behavior; assay: Stereotypy behavior test (apomorphine or D-amphetamine induced); format: in vivo, mice
Protocol: Stereotypy tests were carried out by the method of A. Campbell et al, Neuropharmacol. 21, 953 (1982). Test mice were pretreated with Compound 26 (i.p. injection), then 15 min later apomorphine or D-amphetamine sulfate was injected i.p. The animals were observed every 10 min and rated for stereotypic behavior in comparison to controls.
Rating scale: • 0 = no stereotypy • 1 = discontinuous sniffing • 2 = continuous sniffing • 3 = continuous sniffing and jaw movements
The average total score per animal was obtained (maximum positive score = 18) over a 60-min period. A compound which depresses this score is considered to have properties of a neuroleptic with a potential for use as an antipsychotic agent. The results (see Table VIII) show a pronounced reduction of stereotypy, down to 24% of control.

[10] = 20 μmol/kg s.c., 60 min, Balb/c mice
[11] = 60 μmol/kg s.c., 240 min, Balb/c mice
[12] = 67 μmol/kg s.c., 5 min, Balb/c mice, mean ± S.E.M. (3 measurements)
[13] = 170 μmol/kg s.c., 60 min, Balb/c mice
[14] = Table IX summary, 5-min Brain Penetration Index
[15] = 260 μmol/kg s.c., 5 min, mice, mean ± S.E.M. (n = 3)
[16] = 188 μmol/kg s.c., 5 min, Balb/c mice, mean ± S.E.M. (3 measurements)
[17] = 200 μmol/kg s.c., 60 min, Balb/c mice
[18] = 360 μmol/kg s.c., 180 min, Balb/c mice

Compound: CC/C=C\C/C=C\C/C=C\CCCCCCCC(=O)OCC(COC(=O)CCCN)OC(=O)CCCCCCC/C=C\C/C=C\C/C=C\CC (stereo not shown) [Compound 28, 1,2-dilinolenoyl-3-(gamma-aminobutyroyl)propane-1,2,3-triol]
- In Vivo Inhibition of General Motor Activity [1]: 4
- logP at 18 h [2]: 0.82
- level present in the brain at ED50 [3]: 1.7
- anticonvulsant properties [4]: only weak anticonvulsant properties
- In Vivo Delay of Time of Onset of Bicuculline-induced seizures [4]: 5
- (BRAIN) [5, 10]: 1.4 nmol/g
- (LIVER) [5, 10]: 3.1 nmol/g
- BPI [5, 10]: 44%
- (BRAIN) [5, 11]: 7.1 nmol/g
- (LIVER) [5, 11]: 18.3 nmol/g
- BPI [5, 11]: 39%
- (BRAIN) [5, 12]: 5.9 ± 0.4 nmol/g
- (LIVER) [5, 12]: 4.7 ± 0.4 nmol/g
- BPI [5, 12]: 127±8.3%
- (BRAIN) [5, 13]: 6.0 nmol/g
- (LIVER) [5, 13]: 8.8 nmol/g
- BPI [5, 13]: 68%
- increase of 5-min BPI over GABA [5]: 127 fold
- BPI [5, 14]: 127
- time at which liver levels reach a maximum ([5]; s.c., mice): 45 to 60 min
- ED50 [6]: 43 µmol/kg

Compound: CC/C=C\C/C=C\C/C=C\CCCCCCCCOC(=O)CCCN [Compound 5, Linolenoyl Ester of y-aminobutyric Acid]
- IC50 [7]: 40 µM
- activity in the general motor activity test (in words) ([1]; listed as linolenyl ester): not active
- activity in the general motor activity test (in words) ([1]; listed as linolenyl ester of GABA): insignificant effect; also recorded: no significant effect
- Onset of seizures: % Saline Control ([4]; 12 mg/kg): 102 ± 4 % Saline Control
- Survival Time: % Saline Control ([4]; 12 mg/kg): 118 ± 10 % Saline Control
- Onset of seizures: % Saline Control ([4]; 17 mg/kg): 73 ± 15 % Saline Control
- Survival Time: % Saline Control ([4]; 17 mg/kg): 111 ± 14 % Saline Control
- Onset of seizures: % Saline Control ([4]; 25 mg/kg): 78 ± 9 % Saline Control
- Survival Time: % Saline Control ([4]; 25 mg/kg): 68 ± 9 % Saline Control
- Onset of seizures: % Saline Control ([4]; 36 mg/kg): 50 ± 5 % Saline Control
- Survival Time: % Saline Control ([4]; 36 mg/kg): 62 ± 6 % Saline Control
- Onset of seizures: % Saline Control ([4]; 50 mg/kg): 40 ± 11 % Saline Control
- Survival Time: % Saline Control ([4]; 50 mg/kg): 63 ± 8 % Saline Control
- acceleration of seizure onset time ([4]; 50 mg/kg, 24 hr, listed as linolenyl ester of GABA): 70% and 60%
- In Vivo Delay of Time of Onset of Bicuculline-induced seizures [4]: 0
- (BRAIN) [5, 15]: 3.5 ± 0.4 nmol/g
- (LIVER) [5, 15]: 141.7 ± 8 nmol/g
- BPI [5, 15]: 2 ± 0.6%
- (BRAIN) ([5]; 260 μmol/kg s.c., 15 min, mice): 11.0 nmol/g
- (LIVER) ([5]; 260 μmol/kg s.c., 15 min, mice): 220.8 nmol/g
- BPI ([5]; 260 μmol/kg s.c., 15 min, mice): 5%
- (BRAIN) ([5]; 260 μmol/kg s.c., 45 min, mice): 24.9 nmol/g
- (LIVER) ([5]; 260 μmol/kg s.c., 45 min, mice): 33.3 nmol/g
- BPI ([5]; 260 μmol/kg s.c., 45 min, mice): 75%
- increase of 5-min BPI over GABA [5]: 2 fold
- BPI [5, 14]: 2
- accumulation of radioactivity in brain persisted post-injection ([5]; s.c., mice): 45 to 60 min

Compound: CC/C=C\C/C=C\C/C=C\CCCCCCCC(=O)OCC(COC(=O)CCCN)OC(=O)CCCN (stereo not shown) [Compound 26, 1-linolenoyl-2,3-(gamma-aminobutyroyl)propane-1,2,3-triol]
- ED50 ([1]; Mus musculus, ip, 1 h, depression of locomotor activity at high doses, Figure 2): 36 mg/kg
- In Vivo Inhibition of General Motor Activity [1]: 4
- effect on motor activity at low doses [1]: enhancing locomotor activity; also recorded: enhances motor activity
- effect on motor activity at low doses ([1]; listed as monolinolenoyl-diGABA glyceride): stimulating activity
- remaining at 4 h ([8]; brain): 60%
- remaining at 4 h ([8]; kidney): 10%
- remaining at 4 h ([8]; liver): 30%
- logP at 18 h [2]: 0.322
- level present in the brain at ED50 [3]: 2.1
- anticonvulsant properties [4]: only weak anticonvulsant properties
- In Vivo Delay of Time of Onset of Bicuculline-induced seizures [4]: 4
- (BRAIN) [5, 16]: 3.0 ± 0.2 nmol/g
- (LIVER) [5, 16]: 3.3 ± 0.2 nmol/g
- BPI [5, 16]: 90±13%
- (BRAIN) [5, 17]: 2.4 nmol/g
- (LIVER) [5, 17]: 2.9 nmol/g
- BPI [5, 17]: 87%
- (BRAIN) [5, 18]: 9.4 nmol/g
- (LIVER) [5, 18]: 5.5 nmol/g
- BPI [5, 18]: 170%
- increase of 5-min BPI over GABA [5]: 90 fold
- BPI [5, 14]: 90
- time at which liver levels reach a maximum ([5]; s.c., mice): 45 to 60 min
- Stereotypy score induced by D-Amphetamine Sulfate ([9]; 170 μmole/kg i.p. pretreatment, D-amphetamine sulfate 3 mg/kg, total score over 60 min (max 18), n = 4): 3.3 ± 0.9
- Stereotypy score induced by Apomorphine ([9]; 170 μmole/kg i.p. pretreatment, apomorphine 1 mg/kg, total score over 60 min (max 18), n = 4): 8 ± 3.6
- Stereotypy (% of control), D-Amphetamine Sulfate ([9]; 170 μmole/kg, D-amphetamine sulfate 3 mg/kg): 24 % of control
- Stereotypy (% of control), Apomorphine ([9]; 170 μmole/kg, apomorphine 1 mg/kg): 52 % of control
- ED50 [6]: 69 µmol/kg
